In ChEMBL document CHEMBL6134909 (Eur J Med Chem, 2025):

Legend:
[1] = Cytotoxicity against human A549 cells incubated for 48 hrs by CellTiter-Glo Luminescent Cell Viability Assay; type: toxicity, cell-based
[2] = system: Influenza A virus; assay: Anti-viral activity against Influenza A virus H7N1 pseudotype infected in human A549 cells assessed as inhibition of viral entry incubated for 48 hrs by Neolite Reporter Gene Assay; type: functional, organism-based; conditions: H7N1, A549, 48 h
[3] = Metabolic stability in human plasma at 2 uM measured after 60 mins by LC-MS/MS analysis; type: ADME, cell-free; conditions: 1 h
[4] = Metabolic stability in human liver microsomes assessed as compound remaining at 2 to 10 uM measured after 60 mins in presence of NADPH by LC-MS/MS analysis; type: ADME, Microsome; conditions: dose 2-10 µM, read-out: Stability
[5] = Metabolic stability in mouse plasma at 2 uM measured after 60 mins by LC-MS/MS analysis; type: ADME, cell-free; conditions: 1 h
[6] = Metabolic stability in BALB/c mouse liver microsomes assessed as compound remaining at 2 to 10 uM measured after 60 mins in absence of NADPH by LC-MS/MS analysis; type: ADME, Microsome; conditions: dose 2-10 µM, read-out: Stability
[7] = Metabolic stability in BALB/c mouse liver microsomes assessed as compound remaining at 2 to 10 uM measured after 60 mins in presence of NADPH by LC-MS/MS analysis; type: ADME, Microsome; conditions: dose 2-10 µM, read-out: Stability
[8] = Metabolic stability in human liver microsomes assessed as compound remaining at 2 to 10 uM measured after 60 mins in absence of NADPH by LC-MS/MS analysis; type: ADME, Microsome; conditions: dose 2-10 µM, read-out: Stability

| Compound | CC50 at 48 h [1] | EC50 [2] | Stability [3] | remaining at 1 h, up to 10 µM [4] | Stability [5] | remaining at 1 h, up to 10 µM [6] | remaining at 1 h, up to 10 µM [7] | remaining at 1 h, up to 10 µM [8] |
| --- | --- | --- | --- | --- | --- | --- | --- | --- |
| Cc1cc(C)n2c(NC3CCCCC3)c(-c3ccccc3)nc2n1 | 59 µM | 2.55 µM | – | – | – | – | – | – |
| COc1ccc(-c2nc3sccn3c2NC2CCCCC2)cc1 | 63.1 µM | 3.02 µM | – | – | – | – | – | – |
| Clc1cnc2nc(-c3ccccc3)c(NC3CCCCC3)n2c1 | > 100 µM | 13 µM | – | – | – | – | – | – |
| Fc1ccc(-c2nc3ncccn3c2NC2CCCCC2)c(F)c1 | 72 µM | 0.09 µM | Stable | 33.4% | Stable | 108% | 22.8% | 104% |
| Oc1ccc(-c2nc3ncc(Cl)cn3c2NC2CCCCCC2)cc1 | 50 µM | 1.09 µM | – | – | – | – | – | – |
| CN1CCOc2cc(-c3nc4ncc(Cl)cn4c3NC3CCCCC3)ccc21 | > 100 µM | 2.05 µM | – | – | – | – | – | – |
| Cc1cc(C)n2c(NC3CCCCC3)c(-c3cccc4c3OC(F)(F)O4)nc2n1 | > 25 µM | 6.27 µM | – | – | – | – | – | – |
| Cc1cc(C)n2c(NC3CCCCC3)c(-c3ccc(F)c(N4CCOCC4)c3)nc2n1 | > 25 µM | 4.57 µM | – | – | – | – | – | – |
| Cc1cc(C)n2c(NC3CCCCC3)c(-c3ccnc(Cl)c3)nc2n1 | > 25 µM | 0.27 µM | Stable | 0.5% | Stable | 105% | 6.8% | 114% |
| Fc1ccc(-c2nc3ncc(Cl)cn3c2NC2CCCCC2)cc1F | > 100 µM | 0.26 µM | Stable | – | Stable | – | – | – |
| Fc1ccc(-c2nc3ncc(Cl)cn3c2NC2CCCCCC2)cc1F | > 100 µM | 0.12 µM | Stable | 2.1% | Stable | 101% | 6.3% | 97% |
| CC(C)Oc1ccc(-c2nc3ncccn3c2NC2CCCCC2)cc1 | > 100 µM | 1.45 µM | – | – | – | – | – | – |
| Fc1cc(N2CCOCC2)ccc1-c1nc2ncc(Cl)cn2c1NC1CCCCC1 | 54 µM | 2.49 µM | – | – | – | – | – | – |
| Cc1ccc(Cl)c(-c2nc3ncccn3c2NC2CCCCC2)c1F | 27 µM | 1.26 µM | – | – | – | – | – | – |
| Cc1cc(C)n2c(NC3CCCCC3)c(-c3ccc(F)c(F)c3)nc2n1 | > 25 µM | 1.3 µM | – | – | – | – | – | – |
| CC12CC3CC(C)(C1)CC(Nc1c(-c4ccc(F)c(F)c4)nc4ncccn14)(C3)C2 | 15.5 µM | 9.18 µM | – | – | – | – | – | – |
| COCCOCOc1ccc(-c2nc3ncc(Cl)cn3c2NC2CCCCC2)cc1 | > 100 µM | 0.86 µM | – | – | – | – | – | – |
| CCN(c1c(-c2ccc(F)c(F)c2)nc2ncccn12)C1CCCCC1 | > 100 µM | 12.8 µM | – | 1% | – | 103% | 0% | 110% |
| c1ccc(-c2nc3ncccn3c2NC2CCCC2)cc1 | > 100 µM | 0.35 µM | – | – | – | – | – | – |
| Cc1cc(C)n2c(NC3CCCCC3)c(-c3cc(Br)ncc3F)nc2n1 | > 25 µM | 3.28 µM | – | – | – | – | – | – |
| Fc1cc(-c2nc3ncc(Cl)cn3c2NC2CCCCC2)ccc1N1CCCC1 | > 100 µM | 12.5 µM | – | – | – | – | – | – |
| COCOc1ccc(-c2nc3ncc(Cl)cn3c2NC2CCCCC2)c(F)c1 | 50 µM | 3.04 µM | – | 2.6% | – | 102% | 14.2% | 106% |
| CN1CCN(c2ccc(-c3nc4ncc(Cl)cn4c3NC3CCCCC3)c(F)c2)CC1 | 46 µM | 1.26 µM | – | – | – | – | – | – |
| COCOc1cccc(-c2nc3ncc(Cl)cn3c2NC2CCCCC2)c1F | 51 µM | 3.04 µM | – | – | – | – | – | – |
